Source: patent US20140350370A1, “GLUCOSE SENSING ASSAY” (The Texas A&M University System, priority 2013, published 2014)
Where two headings read alike, the source gives them in different places.

Legend:
ConA [1] = target: T1, ConA (Canavalia ensiformis, UniProt P02866); conditions: cited from earlier work
ConA [2] = target: T1, ConA
Procedure: To explore whether the interaction of ConA with the core trimannose leads to aggregation in free solution, dynamic light scattering (DLS) measurements were performed. […] The TRIS buffer was 10 mM TRIS, 1 M NaCl, 1 mM CaCl2, 1 mM MnCl2, at pH 7.4. The dextran was 2 MDa and used as received from Sigma.
As controls, solutions of the individual components were also scanned to determine the particle size in the absence of aggregation. The final concentration was 3 μM for the competing ligand and 3 μM for ConA. Negative controls were run for each competing ligand (3 μM) without ConA present. ConA was also independently added to a separate control cuvette (3 μM). All solutions were in TRIS buffer and were filtered prior to combining the solutions. After 12 hours, the solutions were mixed to allow for the re-suspension of any settled material and dynamic light scattering studies were performed. The reported data is the average particle size as determined by percent-volume.

Molecule: O=C[C@H](O)[C@@H](O)[C@@H](O)[C@H](O)CO [galactose]
- affinity to ConA (ConA [1]): no affinity

Molecule: OC[C@H]1O[C@H](OC[C@H]2OC(O)[C@@H](O)[C@@H](O[C@H]3O[C@H](CO)[C@@H](O)[C@H](O)[C@@H]3O)[C@@H]2O)[C@@H](O)[C@@H](O)[C@@H]1O (stereo partly drawn) [trimannose, 3,6-Di-O-(α-D-mannopyranosyl)-D-mannopyranose]
- average size of particles in solution with ConA (ConA [2]; 3 μM ligand, 3 μM ConA, TRIS buffer, 12 hours, 22° C., DLS): did not increased in size
- aggregation when paired with ConA (ConA [2]; summary statement, DLS study): no aggregation
- affinity to ConA (ConA [1]; previously shown / literature value): ~330000 M⁻¹

Molecule: methyl mannose
- binding affinity to ConA relative to glucose (ConA [1]; known value): 20-40 times
